Measurements: ChEMBL document CHEMBL4118051, “Scalemic Caged Xanthones Isolated from the Stem Bark Extract of Garcinia propinqua” (J Nat Prod, 2017)

System: HCT-116
Test: Cytotoxicity against human HCT116 cells after 24 hrs by MTT assay
Type: functional, cell-based
Conditions: HCT-116, 24 h

CO[C@H]1[C@@H]2C[C@H]3C(C)(C)O[C@@](/C=C/C(C)(C)O)(C2=O)[C@@]32Oc3c(c(O)cc4c3C(C)(C)C(C)O4)C(=O)[C@H]12 (stereo partly drawn)
IC50: 14.2 µM

CC(C)=CCOc1cc(O)c2c(c1)OC13C(=CC4CC1C(C)(C)OC3(CC=C(C)C)C4=O)C2=O (mixture of isomers)
IC50: 23.9 µM

COc1cccc2c1C(=O)c1c(O)c3c(c(O)c1C2=O)C[C@@](O)(C(=O)CO)C[C@@H]3O[C@H]1C[C@H](N)[C@H](O)[C@H](C)O1 [DOXORUBICIN]
IC50: 9.74 µM
